Values quoted from earlier work as cited in patent US7930948B2, “Device for leaching extraction and assessment” (priority 2007, dated 2011).

Assays:
[1] = octanol/water partition coefficient; after Mackay et al. 1992
[2] = after Mackay et al. 1992

| Compound | log(Kow) [1] | Aqueous Solubility [2] |
| --- | --- | --- |
| c1cc2ccc3ccc4ccc5cccc6c(c1)c2c3c4c56 [Benzo(g,h,i)perylene] | 6.85 | 0.00026 µg/mL |
| c1ccc2c(c1)-c1ccc3ccc4cccc5cc-2c1c3c45 [Indeno(1,2,3-cd)pyrene] | 7.66 |  |
| C1=Cc2cccc3cccc1c23 [Acenaphthylene] | 4.07 |  |
| c1ccc2c(c1)-c1cccc3cccc-2c13 [Fluoranthene] | 5.22 |  |
| c1ccc2c(c1)ccc1cc3c(ccc4ccccc43)cc12 [Dibenzo(a,h)anthracene] | 7.19 | 0.0005 µg/mL |
| c1ccc2cc3ccccc3cc2c1 [Anthracene] | 4.54 | 0.073 µg/mL |
| c1ccc2cc3c(ccc4ccccc43)cc2c1 [Benzo(a)anthracene] | 5.91 |  |
| c1ccc2c(c1)Cc1ccccc1-2 [Fluorene] | 4.18 |  |
| c1ccc2c(c1)ccc1ccccc12 [Phenanthrene] |  | 1.29 µg/mL |
| c1ccc2c(c1)cc1ccc3cccc4ccc2c1c34 [Benzo(a)pyren] | 6.50 |  |
| c1ccc2cc3c(cc2c1)-c1cccc2cccc-3c12 [Benzo(k)fluoranthene] | 6.84 | 0.00081 µg/mL |
| c1ccc2ccccc2c1 [Naphthalene] |  | 34.4 µg/mL |
| Acenaphthene | 4.03 |  |
| c1ccc2c(c1)-c1cccc3c1c-2cc1ccccc13 [Benzo(b)fluoranthene] | 6.50 |  |
